Series [1] deals with MC3T3-E1 cells.
Series [2] deals with MC3T3-E1 cells. The experiment in a line: Dephosphorylation of probe compounds on cell-cultured CDHA (fluorescence images, radiant efficiency). It is filed as cell-based. The note with it: CDHA specimen cultured with cells, treated with probe; diffused ALP hydrolysis increased over time in MC3T3-E1 cells. On the procedure:
In order to confirm the dephosphorylation of the fluorescent probe compounds by ALP or pH change on CDHA, three bare CDHA specimens and three CDHA specimens cultured with MC3T3-E1 cells and Raw264.7 cells were prepared, the results of examining fluorescence images obtained by treating, the three specimens, one of which was treated with the bone-forming activity marker-sensitive fluorescent probe compound of Synthetic Example 1, another of which was treated with the bone-resorbing activity marker-sensitive fluorescent probe compound of Synthetic Example 2, and the remaining one of which was treated with both the bone-forming activity marker-sensitive fluorescent probe compound and the bone-resorbing activity marker-sensitive fluorescent probe compound, were illustrated in FIG. 11, and the results of measuring fluorescence efficiency (radiant efficiency) in each of six specimens were illustrated in FIGS. 12A and 12B.

Take calcium deficient hydroxyapatite [CDHA]: the “cell proliferation (%)” value in the series on Raw264.7 cells and in the series on MC3T3-E1 cells [1] was about 170% in each case.

For the compound `CC1(C)C(/C=C/C2=C3Oc4cc(OCc5ccc(OP(=O)(O)O)cc5)ccc4C=C3CCC2)=[N+](CCCCC(=O)NCCCC(O)(P(=O)(O)O)P(=O)(O)O)c2ccccc21` [compound 1-7], the “fluorescence signal (radiant efficiency)” value in the series with MC3T3-E1 cells [2] is “high fluorescence signal”.

(Values after US20260232846A1, “FLUORESCENT PROBE COMPOUND AND COMPOSITE COMPRISING SAME” (KOREA RESEARCH INSTITUTE OF BIOSCIENCE AND BIOTECHNOLOGY, priority 2022, published 2026).)
